Data set [1] in a line: Solubility of bilastine in water. In kind it is physicochemical. The note with it: pH-dependent.
Data set [2] can be described thus: Solubility of bilastine and mometasone furoate in formulations with HPBCD. In kind it is physicochemical. The note with it: HPBCD 75 mg/mL (7.5 wt %); FIG. 1B. How it is done: Six different formulations (with mometasone furoate monohydrate and the rest of excipients as defined in example 7) were prepared (see table below). The six formulations had amounts of HPBCD from 12.5 to 100 mg/mL. Then, in each of them an excessive amount of bilastine was added and the maximum solubility was tested. Furthermore, the percentage of the mometasone furoate dissolved was also tested. All the measurements were conducted at time 0.

Consider `CCOCCn1c(C2CCN(CCc3ccc(C(C)(C)C(=O)O)cc3)CC2)nc2ccccc21` [Bilastine, 2-[4-(2-{4-[1-(2-ethoxyethyl)-1H-benzimidazol-2-yl]-1-piperidinyl}ethyl)phenyl]-2-methylpropanoic acid], for which the solubility in water entry in data set [1] is “only slightly soluble”.

On to `C[C@@H]1C[C@H]2[C@@H]3CCC4=CC(=O)C=C[C@]4(C)[C@@]3(Cl)[C@@H](O)C[C@]2(C)[C@@]1(OC(=O)c1ccco1)C(=O)CCl.O` [Mometasone Furoate monohydrate, Mometasone furoate monohydrate], for which the “solubility of mometasone furoate” value in data set [2] was “around 4 mg/mL”.
